US20140296281A1, “METHODS FOR SCREENING A BRCA1 LOSS-OF-FUNCTION IN A SUBJECT SUFFERING FROM A CANCER” (INSERM (INSTITUT NATIONAL DE LA SANTE ET DE LA RECHERCHE …, priority 2011, published 2014)
“Also recorded” adds a separate entry of the source.

Key:
[1] = tested on: GR P-Ser211; assay: Western blot of GR P-Ser211; assay type: cell-based, human
Description: […] Control cells were treated with ethanol as vehicle (1:1000). Treatments were carried out in a phenol red free medium containing 5% dextran-charcoal-stripped serum for a period of 24 h in MCF-7 and MDA-MB231 and 48 h in HBE cells.
(§1) These five antibodies were then detected with an anti-rabbit HRP-conjugated secondary antibody (1:5000) (Santa Cruz, Heidelberg, Germany). Actin expression was analyzed with the human anti-β-actin mouse monoclonal primary antibody (1:20 000) (β-actin (AC-15); A5441, Sigma-Aldrich, St Quentin Fallavier, France), and then detected with an anti-mouse HRP-conjugated secondary antibody (1:2000) (Sigma-Aldrich, St Quentin Fallavier, France).

[2] = target: MAPK phosphorylated p38 (P-p38) (Homo sapiens, UniProt Q16539); assay: Western blot of phosphorylated MAPK p38; assay type: cell-based; conditions: MCF-7, in presence of SB
Description: as §1

[3] = tested on: BRCA1; conditions: mouse mammary cells (Antonova and Mueller 2008); cited from earlier work

MAPK phosphorylated p38 (P-p38), sequence (Q16539 whole entry): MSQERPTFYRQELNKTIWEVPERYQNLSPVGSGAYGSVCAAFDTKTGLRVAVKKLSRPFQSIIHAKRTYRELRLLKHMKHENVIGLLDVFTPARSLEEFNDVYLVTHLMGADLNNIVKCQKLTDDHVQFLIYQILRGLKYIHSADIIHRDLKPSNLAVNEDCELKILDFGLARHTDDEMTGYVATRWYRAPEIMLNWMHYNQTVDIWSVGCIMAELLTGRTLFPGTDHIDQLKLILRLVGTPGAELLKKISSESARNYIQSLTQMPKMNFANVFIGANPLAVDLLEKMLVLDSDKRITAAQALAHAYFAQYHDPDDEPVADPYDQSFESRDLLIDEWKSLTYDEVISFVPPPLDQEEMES

| Compound | decrease of GR P-Ser211 level ([1]; MCF-7, DEX+SB compared to DEX treatment alone) | GR P-Ser211 level ([1]; MCF-7, cells exposed to SB compared to basal conditions, even with BRCA1 overexpression) | levels of P-p38 [2] | BRCA1 expression [3] |
| --- | --- | --- | --- | --- |
| Oc1ccc(-c2nc(-c3ccncc3)c(-c3ccc(F)cc3)[nH]2)cc1 [SB] | also observed | constant decrease | increased |  |
| C[C@]12CCC(=O)C=C1CC[C@@H]1[C@@H]2[C@@H](O)C[C@@]2(C)[C@H]1CC[C@]2(O)C(=O)CO [hydrocortisone] |  |  |  | repress; also recorded: decrease |
